These results are taken from patent publication US8716284B2, “Adamantyl diamide derivatives and uses of same” (H. Lundbeck A/S, priority 2008, dated 2014).

SMILES strings stand for the structures.

For the experiment, the target named is T1, rat metabotropic glutamate receptor 5 (mGluR5) (Rattus norvegicus, UniProt P31424).
T1 construct: expressed in transfected cells; host or cells: HEK 293
The experiment is described as follows: Calcium mobilization assay (FLIPR) for negative or positive allosteric activity, HEK 293 cells. The note with it: HEK293, negative allosteric modulation, inhibition of EC80 glutamate response; read-out: FLIPR maximum inhibition. Format: cell-based. As for the experimental part:
The cDNA for rat metabotropic glutamate receptor 5 (mGluR5) was a generous gift from S. Nakanishi (Kyoto University, Kyoto, Japan). The mGluR5 was stably expressed in a HEK 293 cell line and grown in Dulbecco's Modified Eagle Medium (DMEM) (Invitrogen, Carlsbad, Calif.) with supplements (10% bovine calf serum, 4 mM glutamine, 100 units/mL penicillin, 100 μg/mL streptomycin and 0.75 mM G1418) at 37° C., 5% CO2. Twenty-four hours prior to assay, cells were seeded into 384-well black wall microtiter plates coated with poly-D-lysine. Just prior to assay, media was aspirated and cells dye-loaded (25 μL/well) with 3 μM Fluo-4/0.01% pluronic acid in assay buffer (Hank's Balanced Saline Solution (HBSS)): 150 mM NaCl, 5 mM KCl, 1 mM CaCl2, 1 mM MgCl2, plus 20 mM N-2-Hydroxyethylpiperazine-N′-2-ethanesulfonic acid (HEPES), pH 7.4, 0.1% bovine serum albumin (BSA) and 2.5 mM probenicid) for 1 hour in 5% CO2 at 37° C. After excess dye was discarded, cells were washed in assay buffer and layered with a final volume equal to 30 μL/well. Basal fluorescence is monitored in a fluorometric imaging plate reader (FLIPR) (Molecular Devices, Sunnyvale, Calif.) with an excitation wavelength of 488 nm and an emission range of 500 to 560 nm. Laser excitation energy was adjusted so that basal fluorescence readings were approximately 10,000 relative fluorescent units. Cells were stimulated with an EC20 or an EC80 concentration of glutamate in the presence of a compound to be tested, both diluted in assay buffer, and relative fluorescent units were measured at defined intervals (exposure=0.6 sec) over a 3 min period at room temperature. Basal readings derived from negative controls were subtracted from all samples. Maximum change in fluorescence was calculated for each well. Concentration-response curves derived from the maximum change in fluorescence were analyzed by nonlinear regression (Hill equation). A negative modulator can be identified from these concentration-response curves if a compound produces a concentration dependent inhibition of the EC80 glutamate response. […] Examples 11-163 also were tested in the above assay.
A positive modulator can be identified from these concentration-response curves if a compound produces a concentration dependent increase in the EC20 glutamate response.

T1 sequence (P31424 21-1171 isoform P31424-2 limits assumed): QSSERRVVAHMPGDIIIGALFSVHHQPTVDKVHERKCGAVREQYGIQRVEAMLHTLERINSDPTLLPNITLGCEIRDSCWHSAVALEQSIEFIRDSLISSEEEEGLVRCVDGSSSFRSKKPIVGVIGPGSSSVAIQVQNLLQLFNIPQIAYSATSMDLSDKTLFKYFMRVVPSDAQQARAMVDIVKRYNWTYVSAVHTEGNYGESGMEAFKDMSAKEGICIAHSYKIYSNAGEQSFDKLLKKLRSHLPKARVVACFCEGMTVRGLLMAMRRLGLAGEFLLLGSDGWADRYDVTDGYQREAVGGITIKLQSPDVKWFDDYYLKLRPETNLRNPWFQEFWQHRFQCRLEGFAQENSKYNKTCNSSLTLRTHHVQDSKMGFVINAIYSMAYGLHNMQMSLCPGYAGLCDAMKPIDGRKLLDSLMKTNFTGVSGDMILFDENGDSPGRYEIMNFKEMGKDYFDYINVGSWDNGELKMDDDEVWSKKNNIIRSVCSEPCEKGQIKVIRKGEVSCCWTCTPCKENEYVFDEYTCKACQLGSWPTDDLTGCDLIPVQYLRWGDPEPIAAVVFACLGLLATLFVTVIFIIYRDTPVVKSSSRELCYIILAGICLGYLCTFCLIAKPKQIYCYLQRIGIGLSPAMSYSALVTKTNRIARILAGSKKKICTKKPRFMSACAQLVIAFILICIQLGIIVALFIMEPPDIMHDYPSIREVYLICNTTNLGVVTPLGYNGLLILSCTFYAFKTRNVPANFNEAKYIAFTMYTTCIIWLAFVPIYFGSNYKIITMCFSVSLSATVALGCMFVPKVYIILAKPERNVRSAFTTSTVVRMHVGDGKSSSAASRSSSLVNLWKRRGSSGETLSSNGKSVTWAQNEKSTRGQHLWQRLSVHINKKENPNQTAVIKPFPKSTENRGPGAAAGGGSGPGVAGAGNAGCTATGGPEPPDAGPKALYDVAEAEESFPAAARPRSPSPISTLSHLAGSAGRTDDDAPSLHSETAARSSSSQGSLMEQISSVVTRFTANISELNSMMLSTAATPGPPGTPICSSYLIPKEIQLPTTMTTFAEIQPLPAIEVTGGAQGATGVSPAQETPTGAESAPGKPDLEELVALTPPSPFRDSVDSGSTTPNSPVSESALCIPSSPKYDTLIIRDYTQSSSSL

Consider `Cc1ccc2nc(C(=O)NC34CC5CC(CC(NC(=O)c6cccc(C)n6)(C5)C3)C4)cn2c1` [Example 54, 6-Methyl-imidazo[1,2-a]pyridine-2-carboxylic acid {3-[(6-methyl-pyridine-2-carbonyl)-amino]-adamantan-1-yl}-amide], for which the Emax is 63 to 99%.

Consider `Cc1cccc(C(=O)NC23CC4CC(CC(NC(=O)c5ccn6ccnc6c5)(C4)C2)C3)n1` [Example 51, Imidazo[1,2-a]pyridine-7-carboxylic acid {3-[(6-methyl-pyridine-2-carbonyl)-amino]-adamantan-1-yl}-amide], for which the Emax was in the range of 63 to 99%.

As to `CN(C)C1CCN(c2cccc(C(=O)NC34CC5CC(CC(NC(=O)c6cccc(F)c6)(C5)C3)C4)n2)C1` (centres unmarked) [Example 217, 6-(3-Dimethylamino-pyrrolidin-1-yl)-pyridine-2-carboxylic acid [3-(3-fluoro-benzoylamino)-adamantan-1-yl]-amide], the Emax was in the range of 63 to 99%.

In the case of `Cc1cncc(C(=O)NC23CC4CC(C2)CC(NC(=O)c2nccc(C(F)(F)F)n2)(C4)C3)n1` [Example 181, 4-Trifluoromethyl-pyrimidine-2-carboxylic acid {3-[(6-methyl-pyrazine-2-carbonyl)-amino]-adamantan-1-yl}-amide], the Emax lay in the range of 63 to 99%.

As to `Cc1cncc(C(=O)NC23CC4CC(CC(NC(=O)c5cc(F)cc(Cl)c5)(C4)C2)C3)n1` [Example 163, 6-Methyl-pyrazine-2-carboxylic acid [3-(3-chloro-5-fluoro-benzoylamino)-adamantan-1-yl]-amide], the Emax fell in the range of 70 to 99%.

Consider `COCCNc1cccc(C(=O)NC23CC4CC(CC(NC(=O)c5cccc(C)n5)(C4)C2)C3)n1` [Example 235], for which the Emax is 63 to 99%.

As for `Cc1cccc(C(=O)NC23CC4CC(C2)CC(NC(=O)c2cccc(C(C)O)n2)(C4)C3)n1` (centres unmarked) [Example 143, 6-Methyl-pyridine-2-carboxylic acid {3-[(6-(1-hydroxy-ethyl)-pyridine-2-carbonyl)-amino]-adamantan-1-yl}-amide], the Emax lay in the range of 70 to 99%.

As to `O=C(NC12CC3CC(C1)CC(NC(=O)c1ccccn1)(C3)C2)c1ccc2nccn2c1` [Example 89, Imidazo[1,2-a]pyridine-6-carboxylic acid {3-[(pyridine-2-carbonyl)-amino]-adamantan-1-yl}-amide], the Emax fell in the range of 63 to 99%.

As to `Cc1cccc(C(=O)NC23CC4CC(C2)CC(NC(=O)c2ncccn2)(C4)C3)n1` [Example 121, Pyrimidine-2-carboxylic acid {3-[(6-methyl-pyridine-2-carbonyl)-amino]-adamantan-1-yl}-amide], the Emax lay within 70 to 99%.

Take `NC(=O)[C@@H]1CCCN1c1cccc(C(=O)NC23CC4CC(CC(NC(=O)c5ccccn5)(C4)C2)C3)n1` [Example 230, 6-((S)-2-Carbamoyl-pyrrolidin-1-yl)-pyridine-2-carboxylic acid {3-[(pyridine-2-carbonyl)-amino]-adamantan-1-yl}-amide]: the Emax is 63 to 99%.

Take `Cc1cccc(C(=O)NC23CC4CC(C2)CC(NC(=O)c2cnc5ccccc5n2)(C4)C3)n1` [Example 34, Quinoxaline-2-carboxylic acid {3-[(6-methyl-pyridine-2-carbonyl)-amino]-adamantan-1-yl}-amide]: the Emax fell in the range of 63 to 99%.

As to `Cc1ccn2cc(C(=O)NC34CC5CC(CC(NC(=O)c6cccc(F)c6)(C5)C3)C4)nc2c1` [Example 104, 7-Methyl-imidazo[1,2-a]pyridine-2-carboxylic acid [3-(3-fluoro-benzoylamino)-adamantan-1-yl]-amide], the Emax was 63 to 99%.

`Cc1nccc(C(=O)NC23CC4CC(CC(NC(=O)c5ccc(F)cn5)(C4)C2)C3)n1` [Example 191, 2-Methyl-pyrimidine-4-carboxylic acid {3-[(5-fluoro-pyridine-2-carbonyl)-amino]-adamantan-1-yl}-amide]: the Emax is 63 to 99%.

`O=C(NC12CC3CC(C1)CC(NC(=O)c1cccc(N4CCC[C@@H]4CO)n1)(C3)C2)c1cccc(F)c1` [Example 250, 6-((R)-2-Hydroxymethyl-pyrrolidin-1-yl)-pyridine-2-carboxylic acid [3-(3-fluoro-benzoylamino)-adamantan-1-yl]-amide]: the Emax was in the range of 63 to 99%.

Regarding `Cc1ccnc(C(=O)NC23CC4CC(C2)CC(NC(=O)c2cccc(C)n2)(C4)C3)c1` [Example 28, 4-Methyl-pyridine-2-carboxylic acid {3-[(6-methyl-pyridine-2-carbonyl)-amino]-adamantan-1-yl}-amide], the Emax lay within 63 to 99%.

As to `O=C(NC12CC3CC(C1)CC(NC(=O)c1nccc(C(F)(F)F)n1)(C3)C2)c1ccncn1` [Example 196, 4-Trifluoromethyl-pyrimidine-2-carboxylic acid {3-[(pyrimidine-4-carbonyl)-amino]-adamantan-1-yl}-amide], the Emax was in the range of 63 to 99%.

`Cc1cccc(C(=O)NC23CC4CC(CC(NC(=O)c5ccc6occc6c5)(C4)C2)C3)n1` [Example 33, 6-Methyl-pyridine-2-carboxylic acid {3-[(benzofuran-5-carbonyl)-amino]-adamantan-1-yl}-amide]: the Emax was 63 to 99%.

Turning to `O=C(NC12CC3CC(C1)CC(NC(=O)c1ccnc(C(F)(F)F)n1)(C3)C2)c1ccccn1` [Example 112, 2-Trifluoromethyl-pyrimidine-4-carboxylic acid {3-[(pyridine-2-carbonyl)-amino]-adamantan-1-yl}-amide], the Emax fell in the range of 70 to 99%.

In the case of `Cc1nccc(C(=O)NC23CC4CC(C2)CC(NC(=O)c2nccc(C(F)(F)F)n2)(C4)C3)n1` [Example 192, 4-Trifluoromethyl-pyrimidine-2-carboxylic acid {3-[(2-methyl-pyrimidine-4-carbonyl)-amino]-adamantan-1-yl}-amide], the Emax lay in the range of 63 to 99%.

On to `Cn1ccc(C(=O)NC23CC4CC(CC(NC(=O)c5cccc(F)c5)(C4)C2)C3)n1` [Example 97, 1-Methyl-1H-pyrazole-3-carboxylic acid [3-(3-fluoro-benzoylamino)-adamantan-1-yl]-amide], for which the Emax lay within 63 to 99%.

For `O=C(NC12CC3CC(C1)CC(NC(=O)c1ccc(F)cn1)(C3)C2)c1ccccn1` [Example 111, 5-Fluoro-pyridine-2-carboxylic acid {3-[(pyridine-2-carbonyl)-amino]-adamantan-1-yl}-amide], the Emax fell in the range of 70 to 99%.

Consider `Cc1cc(C(=O)NC23CC4CC(CC(NC(=O)c5ccccn5)(C4)C2)C3)nc(C)n1` [Example 106, 2,6-Dimethyl-pyrimidine-4-carboxylic acid {3-[(pyridine-2-carbonyl)-amino]-adamantan-1-yl}-amide], for which the Emax was 70 to 99%.

As to `Cc1cncc(C(=O)NC23CC4CC(C2)CC(NC(=O)c2cc(F)ccc2F)(C4)C3)n1` [Example 148, 6-Methyl-pyrazine-2-carboxylic acid [3-(2,5-difluoro-benzoylamino)-adamantan-1-yl]-amide], the Emax is 70 to 99%.

With `Cc1cccc(C(=O)NC23CC4CC(CC(NC(=O)c5cccc(CCl)c5)(C4)C2)C3)n1` [Example 45, 6-Methyl-pyridine-2-carboxylic acid [3-(3-chloromethyl-benzoylamino)-adamantan-1-yl]-amide], the Emax lay in the range of 63 to 99%.

Take `Cc1cccc(C(=O)NC23CC4CC(C2)CC(NC(=O)c2cn5c(C)cccc5n2)(C4)C3)n1` [Example 55, 5-Methyl-imidazo[1,2-a]pyridine-2-carboxylic acid {3-[(6-methyl-pyridine-2-carbonyl)-amino]-adamantan-1-yl}-amide]: the Emax is 63 to 99%.

`Cc1ccnc(C(=O)NC23CC4CC(C2)CC(NC(=O)c2cc(C)ccn2)(C4)C3)c1` [Example 11, N,N′-(1,3-Adamantylene)bis(4-methyl-pyridine-2-carboxamide)]: the Emax was 63 to 99%.

Regarding `COCCNc1cccc(C(=O)NC23CC4CC(CC(NC(=O)c5cccc(F)c5)(C4)C2)C3)n1` [Example 245, 6-(2-Methoxy-ethylamino)-pyridine-2-carboxylic acid [3-(3-fluoro-benzoylamino)-adamantan-1-yl]-amide], the Emax was in the range of 63 to 99%.

For the compound `Cc1cccc(C(=O)NC23CC4CC(C2)CC(NC(=O)c2c5ccccc5nn2C)(C4)C3)n1` [Example 49, 2-Methyl-2H-indazole-3-carboxylic acid {3-[(6-methyl-pyridine-2-carbonyl)-amino]-adamantan-1-yl}-amide], the Emax was in the range of 63 to 99%.

On to `Cc1cncc(C(=O)NC23CC4CC(CC(NC(=O)c5cncc(Cl)c5)(C4)C2)C3)n1` [Example 170, 6-Methyl-pyrazine-2-carboxylic acid {3-[(5-chloro-pyridine-3-carbonyl)-amino]-adamantan-1-yl}-amide], for which the Emax is 63 to 99%.
